Test results: patent US12714105B2, “Herbicidal mixtures and compositions and methods of use” (priority 2020, dated 2026)

Key:
Assay type in all cases: in vivo
Large Crabgrass [1] = test: Pre-emergent control of Large Crabgrass in Tall Fescue turf (field trial)
Method: (§1) A trial of formulations of the present invention (dithiopyr, isoxaben, MCPP, 2,4-D, and dicamba; e.g., dithiopyr and SLWC) was carried out and is shown in Table 3, below. The trial was initiated on Mar. 12, 2019 on Tall Fescue. The turf was maintained at the height of 2½ inches and watered (twice weekly to ½ inch). Pre-emergent control of Large Crabgrass was evaluated as a percentage of the area in the test plots (1 xl meter and 3 replicates).

Large Crabgrass [2] = test: Pre-emergent control of Large Crabgrass in Kentucky bluegrass turf (field trial)
Method: A trial of formulations of the present invention (dithiopyr, isoxaben, MCPP, 2,4-D, and dicamba) was carried out and is shown in Table 2, below. The trial was initiated on Mar. 12, 2019 on Kentucky bluegrass. The turf was maintained at a height of 2½ inches, watered (twice weekly to ½ inch) and fertilized at local recommendations (0.5 lbs. once June 15th). Pre-emergent control of Large Crabgrass was evaluated as a percentage of the area in the test plots (1 xl meter and 3 replicates).

[3] = test system: broadleaf weeds (Oxalis, Parsley-Preriot and white clover); test: Pre-emergent control of broadleaf weeds in Bermuda grass (field trial); conditions: for Percent Amount of Broadleaf weeds present in Test plots: Percent of SLWC AI's 0, Isoxaben Rate 1144 g ai/ha
Method: A trial of formulations of the present invention (dithiopyr, isoxaben, MCPP, 2,4-D, and dicamba, e.g., dithiopyr and SLWC) was carried out and is shown in Table 6, below. The trial was initiated on Mar. 12, 2019 on Bermuda grass. The turf was maintained at a height of 1½ inches and watered (weekly to ½ inch). Pre-emergent control of broadleaf weeds (Oxalis, Parsley-Preriot and white clover) were evaluated as a percentage of the area in the test plots (1×1 meter and 3 replicates).

[4] = test system: Broadleaf weeds (dandelions, Oxalis, plantain and white clover); test: Pre-emergent control of Broadleaf weeds in Tall Fescue (field trial); conditions: for Percent Amount of Broadleaf weeds present in Test plots: Percent of SLWC AI's 0, Isoxaben Rate 1144 g ai/ha
Method: as §1, with “the formulation” for “formulations”, “dicamba,” for “dicamba;”, “4,” for “3,”, “Broadleaf weeds (dandelions, Oxalis, plantain and white clover)” for “Large Crabgrass”, “(1×1” for “(1 xl”

[5] = test system: Broadleaf weeds (dandelions, Oxalis, and white clover); test: Pre-emergent control of Broadleaf weeds in Kentucky bluegrass (field trial); conditions: for Percent Amount of Broadleaf weeds present in Test plots: Percent of SLWC AI's 0, Isoxaben Rate 1130 g ai/ha
Method: A trial of formulations of the present invention (dithiopyr, isoxaben, MCPP, 2,4-D, and dicamba, e.g., dithiopyr and SLWC) was carried out and is shown in Table 5, below. The trial was initiated on Mar. 12, 2019 on Kentucky bluegrass. The turf was maintained at a height if 2½ inches and watered (twice weekly to ½ inch). Pre-emergent control of Broadleaf weeds (dandelions, Oxalis, and white clover) was evaluated as a percentage of the area in the test plots (1×1 meter and 3 replicates).

[6] = 69 DA-A, dithiopyr only, Dithiopyr Rate 280 g ai/ha
[7] = 83 DA-A, dithiopyr only, Dithiopyr Rate 280 g ai/ha
[8] = 111 DA-A, dithiopyr only, Dithiopyr Rate 280 g ai/ha
[9] = 125 DA-A, dithiopyr only, Dithiopyr Rate 280 g ai/ha
[10] = 139 DA-A, dithiopyr only, Dithiopyr Rate 280 g ai/ha
[11] = 161 DA-A, dithiopyr only, Dithiopyr Rate 280 g ai/ha
[12] = 191 DA-A, dithiopyr only, Dithiopyr Rate 280 g ai/ha

CSC(=O)c1c(C(F)F)nc(C(F)(F)F)c(C(=O)SC)c1CC(C)C [Dithiopyr (Dimension), Dimethyl 2-(difluoromethyl)-4-(2-methylpropyl)-6-(trifluoromethyl)pyridine-3,5-dicarbothioate]
Large Crabgrass, percentage of the area in the test plots (Large Crabgrass [1]; [6]): 0% | Large Crabgrass, percentage of the area in the test plots (Large Crabgrass [1]; [7]): 0% | Large Crabgrass, percentage of the area in the test plots (Large Crabgrass [1]; [8]): 0.7% | Large Crabgrass, percentage of the area in the test plots (Large Crabgrass [1]; [9]): 5% | Large Crabgrass, percentage of the area in the test plots (Large Crabgrass [1]; [10]): 7.3% | Large Crabgrass, percentage of the area in the test plots (Large Crabgrass [1]; [11]): 43.3% | Large Crabgrass, percentage of the area in the test plots (Large Crabgrass [1]; [12]): 50% | effect of the addition of Dithiopyr to SLWC on the pre-emergent control of Large Crabgrass (Large Crabgrass [1]; in words): did not affect | Large Crabgrass, percentage of the area in the test plots (Large Crabgrass [2]; [6]): 0% | Large Crabgrass, percentage of the area in the test plots (Large Crabgrass [2]; [7]): 0% | Large Crabgrass, percentage of the area in the test plots (Large Crabgrass [2]; [8]): 5.7% | Large Crabgrass, percentage of the area in the test plots (Large Crabgrass [2]; [9]): 5% | Large Crabgrass, percentage of the area in the test plots (Large Crabgrass [2]; [10]): 16% | Large Crabgrass, percentage of the area in the test plots (Large Crabgrass [2]; [11]): 26.7% | Large Crabgrass, percentage of the area in the test plots (Large Crabgrass [2]; [12]): 40% | effect of the addition of Dithiopyr to SLWC on the pre-emergent control of Large Crabgrass (Large Crabgrass [2]; in words): did not affect | effect of the addition of Dithiopyr to SLWC on the pre-emergent control of broadleaf weeds provided by Isoxaben ([3]; in words): did not affect | effect of the addition of Dithiopyr to SLWC on the pre-emergent control of broadleaf weeds provided by Isoxaben ([4]; in words): did not affect | effect of the addition of Dithiopyr to SLWC on the pre-emergent control of broadleaf weeds provided by Isoxaben ([5]; in words): did not affect

CCC(C)(CC)c1cc(NC(=O)c2c(OC)cccc2OC)on1 [Isoxaben (Gallery 75 DF), Isoxaben]
Large Crabgrass, percentage of the area in the test plots (Large Crabgrass [1]; 69 DA-A, isoxaben only (rate not given)): 0% | Large Crabgrass, percentage of the area in the test plots (Large Crabgrass [1]; 83 DA-A, isoxaben only (rate not given)): 0% | Large Crabgrass, percentage of the area in the test plots (Large Crabgrass [1]; 111 DA-A, isoxaben only (rate not given)): 7.7% | Large Crabgrass, percentage of the area in the test plots (Large Crabgrass [1]; 125 DA-A, isoxaben only (rate not given)): 16% | Large Crabgrass, percentage of the area in the test plots (Large Crabgrass [1]; 139 DA-A, isoxaben only (rate not given)): 21.7% | Large Crabgrass, percentage of the area in the test plots (Large Crabgrass [1]; 161 DA-A, isoxaben only (rate not given)): 58.3% | Large Crabgrass, percentage of the area in the test plots (Large Crabgrass [1]; 191 DA-A, isoxaben only (rate not given)): 63.3% | Large Crabgrass, percentage of the area in the test plots (Large Crabgrass [2]; 69 DA-A, isoxaben only, LR (labelled rate)): 0% | Large Crabgrass, percentage of the area in the test plots (Large Crabgrass [2]; 83 DA-A, isoxaben only, LR (labelled rate)): 0% | Large Crabgrass, percentage of the area in the test plots (Large Crabgrass [2]; 111 DA-A, isoxaben only, LR (labelled rate)): 6% | Large Crabgrass, percentage of the area in the test plots (Large Crabgrass [2]; 125 DA-A, isoxaben only, LR (labelled rate)): 15% | Large Crabgrass, percentage of the area in the test plots (Large Crabgrass [2]; 139 DA-A, isoxaben only, LR (labelled rate)): 30% | Large Crabgrass, percentage of the area in the test plots (Large Crabgrass [2]; 161 DA-A, isoxaben only, LR (labelled rate)): 28.3% | Large Crabgrass, percentage of the area in the test plots (Large Crabgrass [2]; 191 DA-A, isoxaben only, LR (labelled rate)): 73.3% | Percent Amount of Broadleaf weeds present in Test plots ([3]; 6 DA-A): 6.3% | Percent Amount of Broadleaf weeds present in Test plots ([3]; 29 DA-A): 8.3% | Percent Amount of Broadleaf weeds present in Test plots ([3]; 55 DA-A): 11% | Percent Amount of Broadleaf weeds present in Test plots ([3]; 83 DA-A): 3.3% | Percent Amount of Broadleaf weeds present in Test plots ([3]; 111 DA-A): 3% | Percent Amount of Broadleaf weeds present in Test plots ([3]; 125 DA-A): 0% | Percent Amount of Broadleaf weeds present in Test plots ([3]; 139 DA-A): 0.7% | Percent Amount of Broadleaf weeds present in Test plots ([3]; 161 DA-A): 0.3% | Percent Amount of Broadleaf weeds present in Test plots ([4]; 6 DA-A): 3.3% | Percent Amount of Broadleaf weeds present in Test plots ([4]; 29 DA-A): 2.7% | Percent Amount of Broadleaf weeds present in Test plots ([4]; 55 DA-A): 2% | Percent Amount of Broadleaf weeds present in Test plots ([4]; 83 DA-A): 8.3% | Percent Amount of Broadleaf weeds present in Test plots ([4]; 111 DA-A): 2.7% | Percent Amount of Broadleaf weeds present in Test plots ([4]; 125 DA-A): 0.7% | Percent Amount of Broadleaf weeds present in Test plots ([4]; 139 DA-A): 4% | Percent Amount of Broadleaf weeds present in Test plots ([4]; 161 DA-A): 0% | Percent Amount of Broadleaf weeds present in Test plots ([5]; 6 DA-A): 4.3% | Percent Amount of Broadleaf weeds present in Test plots ([5]; 29 DA-A): 5% | Percent Amount of Broadleaf weeds present in Test plots ([5]; 55 DA-A): 14% | Percent Amount of Broadleaf weeds present in Test plots ([5]; 83 DA-A): 9.7% | Percent Amount of Broadleaf weeds present in Test plots ([5]; 111 DA-A): 17.3% | Percent Amount of Broadleaf weeds present in Test plots ([5]; 125 DA-A): 6.3% | Percent Amount of Broadleaf weeds present in Test plots ([5]; 139 DA-A): 7.7% | Percent Amount of Broadleaf weeds present in Test plots ([5]; 161 DA-A): 1.7%
